Experimental data reported in patent US20260297060A1, “COMPOUNDS FOR THE DEGRADATION OF MUTANT BRAF” (C4 THERAPEUTICS, INC., priority 2023, published 2026).
Where two headings read alike, the source gives them in different places.

Assays:
[1] = tested on: A375-NRAS^Q61K cells; test: CTGlo Cell Viability Assay, A375-NRAS^Q61K (A375.11) cells, 96 hours; type: cell-based, human; conditions: A375.11 (A375-NRAS^Q61K) cells; for CTGlo A375.11 96 hours Emax / Emax: lowest % viability achieved
Method in brief: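 Viability as CellTiter-Glo ATP luminescence after 96 h compound exposure at 37 °C; A375.11 (BRAF V600E/NRAS Q61K) cells at 250/well, top final concentration 10 μM in half-log steps. Signal was background-corrected and set relative to DMSO controls. A 4-parameter logistic fit gave GI50 (50% crossing) and Emax.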

[2] = target: T1, BRAF V600E (Homo sapiens, UniProt P15056+Q96SW2, V600E); test: BRAF V600E HiBiT Degradation Assay; type: cell-based
T1 construct: knock-in of the HiBiT tag to the endogenous BRAF V600E locus; host or cells: A375.10 (A375 clonal line, CRISPR HiBiT knock-in at the endogenous BRAF V600E locus)
Method in brief: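 Endogenous HiBiT knock-in on BRAF V600E in A375 cells (clone A375.10); 11-point half-log series, top 10 μM, 2, 6 or 24 h at 37° C. Lytic HiBiT luminescence, background-subtracted, normalized to DMSO; 4-parameter fit gives DC50, Emax (residual protein) and IP (inflection point).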

[3] = A375.10 cells, BRAF V600E, 2 hours, inflection point, read-out: HiBiT-Degradation A375.10 BRAF 2 hours IP
[4] = A375.10 cells, BRAF V600E, 2 hours, read-out: HiBiT-Degradation A375.10 BRAF 2 hours DC50
[5] = A375.10 cells, BRAF V600E, 2 hours, residual protein remaining
[6] = A375.10 cells, BRAF V600E, 2 hours, residual protein remaining, read-out: HiBiT-Degradation A375.10 BRAF 2 hours Emax
[7] = A375.10 cells, HiBiT, BRAF V600E, 24 hours, read-out: HiBiT-Degradation A375.10 BRAF 24 hours DC50
[8] = A375.10 cells, HiBiT, BRAF V600E, 24 hours, read-out: HiBiT-Degradation A375.10 BRAF 24 hours Emax
[9] = A375.10 cells, HiBiT, BRAF V600E, 24 hours, read-out: HiBiT-Degradation A375.10 BRAF 24 hours IP
[10] = A375.10 cells, HiBiT, BRAF V600E, 24 hours

T1 sequence (P15056 whole entry V600E): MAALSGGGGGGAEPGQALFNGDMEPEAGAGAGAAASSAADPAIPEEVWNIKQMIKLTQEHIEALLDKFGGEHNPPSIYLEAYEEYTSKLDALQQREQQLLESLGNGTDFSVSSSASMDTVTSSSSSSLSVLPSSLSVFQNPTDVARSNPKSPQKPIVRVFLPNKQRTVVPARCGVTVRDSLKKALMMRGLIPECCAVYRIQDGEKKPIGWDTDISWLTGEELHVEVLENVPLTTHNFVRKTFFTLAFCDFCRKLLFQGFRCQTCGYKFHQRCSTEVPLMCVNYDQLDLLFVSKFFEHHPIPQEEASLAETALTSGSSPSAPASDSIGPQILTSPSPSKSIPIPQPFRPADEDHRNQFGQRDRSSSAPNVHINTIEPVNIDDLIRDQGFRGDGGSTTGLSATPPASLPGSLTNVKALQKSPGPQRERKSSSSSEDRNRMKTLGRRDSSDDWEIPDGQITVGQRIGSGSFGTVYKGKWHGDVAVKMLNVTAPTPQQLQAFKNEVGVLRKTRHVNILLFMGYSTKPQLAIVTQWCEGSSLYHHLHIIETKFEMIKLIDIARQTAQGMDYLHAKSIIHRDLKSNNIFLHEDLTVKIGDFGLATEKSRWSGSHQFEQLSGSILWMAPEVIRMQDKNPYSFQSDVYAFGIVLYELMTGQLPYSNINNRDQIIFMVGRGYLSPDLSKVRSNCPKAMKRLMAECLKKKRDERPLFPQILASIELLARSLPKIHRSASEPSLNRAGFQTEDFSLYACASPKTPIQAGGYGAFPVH
T1 sequence (Q96SW2 whole entry): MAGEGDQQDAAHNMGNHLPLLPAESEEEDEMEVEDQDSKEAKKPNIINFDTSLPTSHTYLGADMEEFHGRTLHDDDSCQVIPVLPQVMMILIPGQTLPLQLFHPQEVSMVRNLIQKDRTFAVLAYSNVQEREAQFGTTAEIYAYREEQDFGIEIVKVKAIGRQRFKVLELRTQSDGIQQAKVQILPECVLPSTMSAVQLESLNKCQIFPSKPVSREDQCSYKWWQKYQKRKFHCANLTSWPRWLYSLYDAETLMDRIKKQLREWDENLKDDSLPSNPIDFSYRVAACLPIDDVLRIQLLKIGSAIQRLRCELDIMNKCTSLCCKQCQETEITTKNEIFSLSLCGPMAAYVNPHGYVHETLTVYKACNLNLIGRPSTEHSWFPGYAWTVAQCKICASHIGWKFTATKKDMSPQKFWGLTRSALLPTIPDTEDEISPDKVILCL
T1 sequence (Q16531 whole entry partner): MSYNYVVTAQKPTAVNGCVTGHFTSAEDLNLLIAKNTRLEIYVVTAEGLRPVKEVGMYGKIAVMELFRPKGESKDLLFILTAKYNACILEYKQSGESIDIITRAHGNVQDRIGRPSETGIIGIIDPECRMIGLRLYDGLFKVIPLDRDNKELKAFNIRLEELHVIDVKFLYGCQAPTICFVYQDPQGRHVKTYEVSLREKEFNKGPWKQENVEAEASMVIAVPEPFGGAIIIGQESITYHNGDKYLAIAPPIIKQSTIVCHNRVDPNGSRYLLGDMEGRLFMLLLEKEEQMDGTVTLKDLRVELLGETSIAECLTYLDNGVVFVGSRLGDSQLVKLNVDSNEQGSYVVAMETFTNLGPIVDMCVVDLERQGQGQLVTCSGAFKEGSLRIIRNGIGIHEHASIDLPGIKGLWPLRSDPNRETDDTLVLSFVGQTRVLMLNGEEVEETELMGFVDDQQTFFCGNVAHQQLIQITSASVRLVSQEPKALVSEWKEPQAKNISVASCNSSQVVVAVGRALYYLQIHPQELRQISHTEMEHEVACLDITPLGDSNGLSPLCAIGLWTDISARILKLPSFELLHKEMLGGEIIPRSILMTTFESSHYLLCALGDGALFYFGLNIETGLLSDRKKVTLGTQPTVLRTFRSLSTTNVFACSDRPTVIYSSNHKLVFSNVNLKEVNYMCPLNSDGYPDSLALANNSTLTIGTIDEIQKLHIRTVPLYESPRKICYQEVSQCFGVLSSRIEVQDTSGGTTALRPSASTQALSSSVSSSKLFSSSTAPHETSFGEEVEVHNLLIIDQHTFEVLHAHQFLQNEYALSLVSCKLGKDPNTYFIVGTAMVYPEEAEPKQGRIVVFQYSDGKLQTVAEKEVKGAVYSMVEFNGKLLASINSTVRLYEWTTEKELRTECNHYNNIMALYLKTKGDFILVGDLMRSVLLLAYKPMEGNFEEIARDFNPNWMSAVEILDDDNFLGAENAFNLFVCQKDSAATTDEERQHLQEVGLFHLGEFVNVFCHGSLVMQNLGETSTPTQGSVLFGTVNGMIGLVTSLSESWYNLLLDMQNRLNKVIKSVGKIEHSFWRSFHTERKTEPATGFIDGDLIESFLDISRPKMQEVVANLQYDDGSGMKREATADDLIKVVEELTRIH

Row | Compound | GI50 [1] [nM] | CTGlo A375.11 96 hours Emax [1] | DC50 [2, 3] [nM] | DC50 [2, 4] [nM] | HiBiT-Degradation A375.10 BRAF 2 hours Emax [2, 5] | GI50 ([1]; Homo sapiens, 96 h) [nM] | Emax ([1]; Homo sapiens, 96 h) [%] | Emax [2, 6] [%] | DC50 [2, 7] [nM] | Emax [2, 8] [%] | DC50 [2, 9] [nM] | HiBiT-Degradation A375.10 BRAF 24 hours Emax [2, 10] | Emax ([2]; read-out: HiBiT-Degradation A375.10 BRAF 2 hours Emax, A375.10 cells, BRAF V600E, 2 hours, residual protein remaining) [%]
1 | CN(CCO)S(=O)(=O)Nc1ccc(F)c(Oc2ccc3ncc(C4CC5(CCN(C6CCC(c7cc8c(cc7F)c(N7CCC(=O)NC7=O)nn8C)CC6)CC5)C4)nc3c2)c1C#N (single isomer, unassigned) [Compound 295, 7-[2-cyano-6-fluoro-3-[[2-hydroxyethyl(methyl)sulfamoyl]amino]phenoxy]-2-[7-[4-[3-(2,4-dioxohexahydropyrimidin-1-yl)-5-fluoro-1-methyl-indazol-6-yl]cyclohexyl]-7-azaspiro[3.5]nonan-2-yl]quinoxaline] | 1000 to 10000 | * (>=90%) | < 1000 | < 1000 | ** (<90% and >50%) | – | – | – | – | – | – | – | –
2 | CCN(C)S(=O)(=O)Nc1ccc(F)c(Oc2ccc3ncc(C4CC5(C4)CN(C4CCC(c6cc7c(cc6F)c(N6CCC(=O)NC6=O)nn7C)CC4)C5)nc3c2)c1C#N (single isomer, unassigned) [Compound 297, 7-[2-cyano-3-[[ethyl(methyl)sulfamoyl]amino]-6-fluoro-phenoxy]-2-[2-[4-[3-(2,4-dioxohexahydropyrimidin-1-yl)-5-fluoro-1-methyl-indazol-6-yl]cyclohexyl]-2-azaspiro[3.3]heptan-6-yl]quinoxaline] | – | – | < 1000 | 1000 to 10000 | – | 1000 to 10000 | 50 to 90 | 50 to 90 | < 1000 | < 50 | < 1000 | – | –
3 | CCN(C)S(=O)(=O)Nc1ccc(F)c(Oc2ccc3ncc(C4CC5(C4)CN(C4CCC(c6cc7c(cc6F)c(N6CCC(=O)NC6=O)nn7C)CC4)C5)nc3c2)c1C#N (single isomer, unassigned) [Compound 298, 7-[2-cyano-3-[[ethyl(methyl)sulfamoyl]amino]-6-fluoro-phenoxy]-2-[2-[4-[3-(2,4-dioxohexahydropyrimidin-1-yl)-5-fluoro-1-methyl-indazol-6-yl]cyclohexyl]-2-azaspiro[3.3]heptan-6-yl]quinoxaline] | < 1000 | *** (<=50%) | < 1000 | < 1000 | *** (<=50%) | – | – | – | < 1000 | – | < 1000 | *** (<=50%) | –
4 | CCN(C)S(=O)(=O)Nc1ccc(F)c(Oc2ccc3ncn(C4CC5(C4)CN(C4CCC(c6cc7c(cc6F)c(N6CCC(=O)NC6=O)nn7C)CC4F)C5)c(=O)c3c2)c1C#N (single isomer, unassigned) [Compound 299] | – | – | < 1000 | 1000 to 10000 | – | 1000 to 10000 | 50 to 90 | – | < 1000 | < 50 | < 1000 | – | 50 to 90
5 | CCN(C)S(=O)(=O)Nc1ccc(F)c(Oc2ccc3ncn(C4CC5(C4)CN(C4CCC(c6cc7c(cc6F)c(N6CCC(=O)NC6=O)nn7C)CC4F)C5)c(=O)c3c2)c1C#N (single isomer, unassigned) [Compound 300] | < 1000 | ** (<90% and >50%) | < 1000 | < 1000 | *** (<=50%) | – | – | – | < 1000 | – | < 1000 | *** (<=50%) | –
6 | CCN(C)S(=O)(=O)Nc1ccc(F)c(Oc2ccc3ncn(C4CC5(CCN(C6CC7(C6)CN(c6cc8c(cc6F)c(N6CCC(=O)NC6=O)nn8C)C7)C5)C4)c(=O)c3c2)c1C#N (single isomer, unassigned) [Compound 301, 6-[2-cyano-3-[[ethyl(methyl)sulfamoyl]amino]-6-fluoro-phenoxy]-3-[6-[2-[3-(2,4-dioxohexahydropyrimidin-1-yl)-5-fluoro-1-methyl-indazol-6-yl]-2-azaspiro[3.3]heptan-6-yl]-6-azaspiro[3.4]octan-2-yl]-4-oxo-quinazoline] | – | – | < 1000 | < 1000 | – | < 1000 | 50 to 90 | 50 to 90 | – | – | – | – | –
